Measured values: article PMC10059066, “Probing Serum Albumins and Cyclodextrins as Binders of the Mycotoxin Metabolites Alternariol-3-Glucoside, Alternariol-9-Monomethylether-3-Glucoside, and Zearalenone-14-Glucuronide” (Metabolites, 2023)
Several values for one entry are separate records, joined by “and”; a condition that tells them apart may be missing. Identical values can stand only once. Like-named read-outs stand apart in the source and are kept apart here.

Tests used:
[1] = Fluorescence spectroscopic study of mycotoxin-SBECD complex formation; format: binding
Method: (§1) The impacts of SBECD (0–10 mM) and SGD (0–5 mM) on the emission signals of mycotoxins (1 μM each) were tested in sodium acetate buffer (0.05 M, pH 5.0). Mycotoxin–CD interactions were evaluated using the Benesi–Hildebrand equation [11, 31], assuming 1:1 stoichiometry of complex formation:(2) F0/F−F0=1/A+1/A×K×[CD] where K (L/mol) is the binding constant, F0 is the emission signal of the mycotoxin without the host molecules, F is the emission signal of the mycotoxin with CDs, A is a constant, and [CD] is the molar concentration (mol/L) of the host molecules.
(§2) Therefore, CD-induced elevation in the fluorescence emission intensities of mycotoxins was examined.
(§3) Based on the emission signals at 455 nm, the binding constants of ligand–CD complexes were calculated using the Benesi–Hildebrand equation (Equation (2)). Background corrections were performed in each experiment. […] Glucose and glucuronic acid are bulky, hydrophilic molecules; therefore, it is reasonable to hypothesize that these substituents make the inclusion of AG, AMG, and Z14Glr by the apolar CD cavity difficult.

[2] = target: T1, human serum albumin (HSA) (Homo sapiens, UniProt P02768); experiment: Fluorescence quenching of human serum albumin by mycotoxins; format: binding; settings: mycotoxin 0–5 μM, albumin 2 μM, PBS pH 7.4
T1 construct: purchased Merck (Darmstadt, Germany)
T1 sequence (P02768 25-609): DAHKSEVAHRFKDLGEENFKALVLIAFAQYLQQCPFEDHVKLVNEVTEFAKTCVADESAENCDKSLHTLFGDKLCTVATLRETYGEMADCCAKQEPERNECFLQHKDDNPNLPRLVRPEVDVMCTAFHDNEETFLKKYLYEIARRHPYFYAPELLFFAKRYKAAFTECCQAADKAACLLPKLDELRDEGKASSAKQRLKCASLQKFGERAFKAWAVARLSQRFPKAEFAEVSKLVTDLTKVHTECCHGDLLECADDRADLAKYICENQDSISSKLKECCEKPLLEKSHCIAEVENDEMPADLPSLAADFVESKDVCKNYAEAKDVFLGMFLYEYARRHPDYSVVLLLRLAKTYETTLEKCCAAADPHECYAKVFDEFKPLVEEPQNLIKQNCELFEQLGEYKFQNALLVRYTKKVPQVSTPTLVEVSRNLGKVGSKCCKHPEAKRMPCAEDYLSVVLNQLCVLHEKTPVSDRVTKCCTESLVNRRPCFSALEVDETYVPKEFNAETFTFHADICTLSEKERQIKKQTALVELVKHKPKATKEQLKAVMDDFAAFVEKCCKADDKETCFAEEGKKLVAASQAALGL
Method: (§4) Fluorescence emission spectra were collected at 25 °C using a Hitachi F-4500 fluorescence spectrophotometer (Tokyo, Japan). The quenching effects of AG, AMG, and Z14Glr (each 0–5 μM) on the emission signals of albumins (2 μM each) were examined at 340 nm in phosphate-buffered saline (PBS, pH 7.4). UV–vis measurements were performed at 25 °C in PBS, employing a Jasco V730 UV–vis spectrophotometer (Tokyo, Japan). Thereafter, we corrected the inner-filter effects of the mycotoxins, as previously reported. Stern–Volmer quenching constants (KSV; L/mol) were calculated with the graphical application of the Stern–Volmer equation [11, 29]:(1) I0/I=1+KSV×Q where I0 and I are the emission intensities of the protein without and with the quencher, respectively, while [Q] is the concentration (mol/L) of the quencher (mycotoxin). The binding constants (K; L/mol) of mycotoxin–albumin complexes were determined with nonlinear fitting, using the HyperQuad2006 software (version 3.1; Protonic Software GmbH, Hanau, Germany), as described previously.
(§5) The interaction of a ligand molecule with albumin usually induces a decrease in the emission signal of the protein [33]; therefore, fluorescence quenching studies were performed. In PBS (pH 7.4), increasing amounts of AG, AMG, and Z14Glr were added to standard concentrations of human (HSA), bovine (BSA), porcine (PSA), or rat (RSA) serum albumins, after which the emission spectra were recorded.
(§6) The KSV and K values of mycotoxin–albumin complexes were determined using the Stern–Volmer equation (Equation (1)) and the HyperQuad2006 software (see data in Table 1 and Table 2, respectively). […] The logKSV and logK values of the mycotoxin–albumin complexes were in good agreement (Table 1 and Table 2).

rat serum albumin (RSA) [3] = target: T2, rat serum albumin (RSA) (Rattus norvegicus, UniProt P02770); experiment: Fluorescence quenching of rat serum albumin by mycotoxins; format: binding
T2 construct: purchased Merck (Darmstadt, Germany)
T2 sequence (P02770 25-608): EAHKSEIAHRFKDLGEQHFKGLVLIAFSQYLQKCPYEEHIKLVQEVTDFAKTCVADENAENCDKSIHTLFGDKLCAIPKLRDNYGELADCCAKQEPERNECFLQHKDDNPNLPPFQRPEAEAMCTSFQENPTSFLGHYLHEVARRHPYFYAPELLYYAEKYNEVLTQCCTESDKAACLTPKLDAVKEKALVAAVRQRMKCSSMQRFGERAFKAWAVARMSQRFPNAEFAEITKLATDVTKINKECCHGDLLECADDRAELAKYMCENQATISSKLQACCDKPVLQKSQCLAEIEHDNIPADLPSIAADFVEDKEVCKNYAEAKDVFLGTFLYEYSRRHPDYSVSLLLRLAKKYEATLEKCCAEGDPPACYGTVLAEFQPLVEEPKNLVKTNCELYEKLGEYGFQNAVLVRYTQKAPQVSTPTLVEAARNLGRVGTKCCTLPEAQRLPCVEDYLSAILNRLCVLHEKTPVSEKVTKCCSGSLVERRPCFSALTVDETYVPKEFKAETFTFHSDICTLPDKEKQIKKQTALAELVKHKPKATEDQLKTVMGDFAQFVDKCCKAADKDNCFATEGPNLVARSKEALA
Method: as §4, §5, §6

[4] = Fluorescence spectroscopic study of mycotoxin-SGD complex formation; format: binding; settings: SGD 0–5 mM, mycotoxin 1 μM, sodium acetate pH 5.0
Method: as §1, §2, §3

rat serum albumin (RSA) [5] = target: T2, rat serum albumin (RSA); experiment: Ultracentrifugation study of Z14Glr-RSA binding; settings: PBS pH 7.4, read-out: logK of the Z14Glr–RSA complex (converted)
[6] = target: T3, bovine serum albumin (BSA) (Bos taurus, UniProt P02769); experiment: Fluorescence quenching of bovine serum albumin by mycotoxins; format: binding; settings: mycotoxin 0–5 μM, albumin 2 μM, PBS pH 7.4
T3 construct: purchased Merck (Darmstadt, Germany)
T3 sequence (P02769 25-607): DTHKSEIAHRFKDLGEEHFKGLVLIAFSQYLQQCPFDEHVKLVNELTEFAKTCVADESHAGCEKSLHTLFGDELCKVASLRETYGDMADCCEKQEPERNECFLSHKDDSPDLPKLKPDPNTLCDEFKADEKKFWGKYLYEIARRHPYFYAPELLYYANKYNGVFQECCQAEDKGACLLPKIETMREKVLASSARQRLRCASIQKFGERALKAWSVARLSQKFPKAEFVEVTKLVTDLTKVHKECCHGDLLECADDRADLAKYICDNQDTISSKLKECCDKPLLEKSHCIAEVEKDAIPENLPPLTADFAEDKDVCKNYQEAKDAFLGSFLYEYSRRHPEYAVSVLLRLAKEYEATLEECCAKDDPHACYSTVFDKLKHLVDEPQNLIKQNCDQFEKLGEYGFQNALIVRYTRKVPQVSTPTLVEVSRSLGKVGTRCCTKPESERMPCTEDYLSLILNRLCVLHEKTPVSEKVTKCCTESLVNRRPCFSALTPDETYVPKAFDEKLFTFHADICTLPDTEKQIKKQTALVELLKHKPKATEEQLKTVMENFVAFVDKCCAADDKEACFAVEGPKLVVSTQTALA
Method: as §4, §5, §6

[7] = target: T1, human serum albumin (HSA); experiment: Ultracentrifugation study of mycotoxin-HSA binding
Method: To confirm the data calculated based on fluorescence quenching studies, ultracentrifugation experiments were also performed. With the proper conditions of ultracentrifugation, albumin (with the bound ligands) can be sedimented. The samples (final volume: 500 μL) contained AG, AMG, or Z14Glr (5 μM each) with HSA (60 or 180 μM) dissolved in PBS. Centrifugation (16 h, 170,000× g, 20 °C) was performed using 11 × 34 mm PC tubes (Beckman Coulter, Brea, CA, US) and a Beckman Coulter Optima MAX-XP tabletop ultracentrifuge (fixed-angle rotor). The unbound fractions of mycotoxins were determined in the protein-free supernatant by HPLC-FLD (see details in Section 2.5), as previously reported. (3) K=[LA]/L×[A] where [L], [A], and [LA] are the concentrations (mol/L) of the ligand (unbound), albumin (unbound), and the ligand–albumin complex, respectively.
Furthermore, to test the impact of environmental pH on the stability of mycotoxin–albumin complexes, the abovementioned experiments were also performed in 0.05 M sodium acetate (pH 5.0) and 0.05 M sodium borate (pH 8.5) buffers.
To confirm the binding constants determined in the quenching experiments, and to get insight into the interaction of Z14Glr with HSA, ultracentrifugation studies were also performed. In these investigations, albumins (with the ligands bound) were sedimented, and then the concentrations of the unbound mycotoxins were quantified from the supernatants.

[8] = Extraction of mycotoxins from aqueous solutions with γ-cyclodextrin bead polymer; settings: GBP 0–10 mg/mL, mycotoxin 5 μM, sodium acetate buffer pH 5.0
Method: (§7) The extraction of mycotoxins by insoluble (but water-swellable) CD bead polymers was tested in 0.05 M sodium acetate (pH 5.0) and 0.05 M sodium borate (pH 10.0) buffers. AG, AMG, alternariol, Z14Glr, and zearalenone solutions (5 μM each) were incubated with increasing amounts (0–10 mg/mL) of BBP or GBP in a thermomixer for 40 min at 1000 rpm and 25 °C. After pulse centrifugation (5000× g, 3 s), the mycotoxin contents of the supernatants were analyzed by HPLC-FLD (see Section 2.5).
(§8) The quantitative analyses of the examined mycotoxins were performed with a Jasco HPLC system (Tokyo, Japan) equipped with a binary pump (PU-4180), an autosampler (AS 4050), and a fluorescence detector (FP-920). Chromatograms were evaluated using the ChromNAV2 software (Jasco). Alternariol and zearalenone were analyzed as described previously. During the validation of our new HPLC-FLD methods, the linearity (LIN), limit of detection (LOD), limit of quantification (LOQ), and intraday repeatability (IDR) were determined as described previously.
AG and AMG were quantified using the following method: Isocratic elution of the samples (20 μL) was performed at room temperature with a 1 mL/min flow rate, employing phosphoric acid (1 mM) and acetonitrile (65:35 v/v%) as the mobile phase, where a Security Guard (C18, 4.0 × 3.0 mm; Phenomenex, Torrance, CA, US) precolumn was linked to a Kinetex EVO C18 (250 × 4.6 mm, 5 μm; Phenomenex) analytical column. Chromatograms were recorded, applying 335 nm and 455 nm excitation and emission wavelengths, respectively. […]
Z14Glr was quantified using the following method: Isocratic elution of the samples (20 μL) was performed at room temperature with a 1 mL/min flow rate, employing 1% acetic acid solution and acetonitrile (65:35 v/v%) as the mobile phase, where a Security Guard (C8, 4.0 × 3.0 mm; Phenomenex) precolumn was linked to a Mediterranea See8 (C8, 150 × 4.6 mm, 5 μm; Teknokroma, Barcelona, Spain) analytical column. Chromatograms were recorded, applying 315 nm and 465 nm excitation and emission wavelengths, respectively. […]

[9] = target: T4, porcine serum albumin (PSA) (Sus scrofa, UniProt P08835); experiment: Fluorescence quenching of porcine serum albumin by mycotoxins; format: binding; settings: mycotoxin 0–5 μM, albumin 2 μM, PBS pH 7.4
T4 construct: purchased Merck (Darmstadt, Germany)
T4 sequence (P08835 25-607): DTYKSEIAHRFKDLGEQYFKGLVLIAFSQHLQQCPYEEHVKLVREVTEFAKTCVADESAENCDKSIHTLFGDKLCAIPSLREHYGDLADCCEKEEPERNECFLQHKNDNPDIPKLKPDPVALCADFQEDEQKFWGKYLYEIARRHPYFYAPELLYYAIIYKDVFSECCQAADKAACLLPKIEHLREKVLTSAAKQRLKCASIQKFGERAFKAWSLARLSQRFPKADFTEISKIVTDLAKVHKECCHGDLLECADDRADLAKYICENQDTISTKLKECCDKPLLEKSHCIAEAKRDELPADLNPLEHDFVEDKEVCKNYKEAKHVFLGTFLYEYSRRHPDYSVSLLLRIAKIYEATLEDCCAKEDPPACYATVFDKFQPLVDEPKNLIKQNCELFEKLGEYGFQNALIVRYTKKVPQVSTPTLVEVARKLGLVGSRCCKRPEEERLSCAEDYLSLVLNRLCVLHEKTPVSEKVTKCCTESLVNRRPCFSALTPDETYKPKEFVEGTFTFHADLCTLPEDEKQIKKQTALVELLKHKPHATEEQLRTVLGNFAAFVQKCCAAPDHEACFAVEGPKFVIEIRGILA
Method: as §4, §5, §6

[10] = Extraction of mycotoxins from aqueous solutions with β-cyclodextrin bead polymer; settings: for decrease in mycotoxin concentration (extraction) by BBP: BBP 10 mg/mL, mycotoxin 5 μM, sodium acetate buffer pH 5.0, 40 min, 25 °C
Method: as §7, §8
AG and AMG were quantified using the following method: Isocratic elution of the samples (20 μL) was performed at room temperature with a 1 mL/min flow rate, employing phosphoric acid (1 mM) and acetonitrile (65:35 v/v%) as the mobile phase, where a Security Guard (C18, 4.0 × 3.0 mm; Phenomenex, Torrance, CA, US) precolumn was linked to a Kinetex EVO C18 (250 × 4.6 mm, 5 μm; Phenomenex) analytical column. Chromatograms were recorded, applying 335 nm and 455 nm excitation and emission wavelengths, respectively. The method validation parameters were as follows: AG (LIN: 0.2–5.0 μM, R^2 = 0.999; LOD = 0.05 μM; LOQ = 0.18 μM; IDR = 1.3%, n = 7); AMG (LIN: 0.2–5.0 μM, R^2 = 0.997; LOD = 0.15 μM; LOQ = 0.50 μM; IDR = 2.3%, n = 7).
Z14Glr was quantified using the following method: Isocratic elution of the samples (20 μL) was performed at room temperature with a 1 mL/min flow rate, employing 1% acetic acid solution and acetonitrile (65:35 v/v%) as the mobile phase, where a Security Guard (C8, 4.0 × 3.0 mm; Phenomenex) precolumn was linked to a Mediterranea See8 (C8, 150 × 4.6 mm, 5 μm; Teknokroma, Barcelona, Spain) analytical column. Chromatograms were recorded, applying 315 nm and 465 nm excitation and emission wavelengths, respectively. The method validation parameters for the HPLC analysis of Z14Glr were also determined (LIN: 0.2–5.0 μM, R^2 = 0.999; LOD = 0.15 μM; LOQ = 0.50 μM; IDR = 2.0%, n = 7).

albumins = tested on: albumins; design: method as in PMID 31083629; settings: alternariol, RSA vs HSA; cited from earlier work

SMILES	SBECD logK ± SEM (binding constant) ([1]; Benesi–Hildebrand, 0.05 M sodium acetate pH 5.0, mycotoxin 1 μM, n = 3) [L/mol]	SBECD-induced increase in the emission signal of the mycotoxin ([1]; SBECD 0–10 mM, mycotoxin 1 μM, sodium acetate pH 5.0)	effect on fluorescence emission spectrum of HSA [2]	RSA logKSV ± SEM (Stern–Volmer quenching constant) (rat serum albumin (RSA) [3]; PBS pH 7.4, 25 °C, albumin 2 μM, mycotoxin 0–5 μM, n = 3) [L/mol]	Kd (rat serum albumin (RSA) [3]; fluorescence quenching, HyperQuad fitting, PBS pH 7.4, n = 3, read-out: RSA logK ± SEM (binding constant) (converted)) [µM]	binding constant K of Z14Glr-RSA complex (rat serum albumin (RSA) [3]; fluorescence quenching, PBS pH 7.4)	effect on fluorescence emission intensity of RSA (rat serum albumin (RSA) [3]; mycotoxin 0–5 μM, albumin 2 μM, PBS pH 7.4)	SGD-induced increase in the emission signal of the mycotoxin [4]	Kd (rat serum albumin (RSA) [5]) [µM]	effect on fluorescence emission spectrum of BSA [6]	Kd ([7]; 0.05 M sodium acetate pH 5.0, mycotoxin 5 μM, n = 3, read-out: HSA pH 5.0 logK ± SEM (binding constant) (converted)) [µM]	Kd ([7]; 0.05 M sodium borate pH 8.5, mycotoxin 5 μM, n = 3, read-out: HSA pH 8.5 logK ± SEM (binding constant) (converted)) [µM]	Kd ([7]; PBS pH 7.4, mycotoxin 5 μM, n = 3, read-out: HSA pH 7.4 logK ± SEM (binding constant) (converted))	removal of mycotoxin by GBP [8]	effect on fluorescence emission spectrum of PSA [9]	decrease in mycotoxin concentration (extraction) by BBP [10]	removal of mycotoxin by BBP at pH 10.0 compared with pH 5.0 ([10]; sodium borate pH 10.0 vs sodium acetate pH 5.0, mycotoxin 5 μM)	affinity of RSA compared to HSA (albumins)
C[C@H]1CCCC(=O)CCC/C=C/c2cc(O[C@@H]3OC(C(=O)O)[C@@H](O)C(O)C3O)cc(O)c2C(=O)O1 (stereo partly drawn) [Z14Glr, zearalenone-14-β,D-glucuronide]	2.32 ± 0.12	ninefold	barely affected	4.65 ± 0.05	19.5	≈ 5 × 10^4 L/mol	considerably decreased	fivefold	13.5	barely affected	25.7	58.9	63.1 µM and 60.3 µM	only moderate removal	barely affected	45%	significantly lower than at acidic pH	–
Cc1cc(O)cc2oc(=O)c3c(O)cc(O)cc3c12 [alternariol]	–	–	–	–	–	–	–	–	–	–	–	–	–	–	–	–	–	almost eightfold higher affinity
C[C@H]1CCCC(=O)CCC/C=C/c2cc(O)cc(O)c2C(=O)O1 [zearalenone]	–	–	–	–	–	–	–	–	–	–	–	–	–	–	–	more than 95%	–	–
